# Patent US20040224980A1, “Substituted 1H-quinolin-2-one compounds” (priority 2001, published 2004)
# Test system: phenylquinone-induced writhing reactions
# Test: phenylquinone-induced writhing in mice
# Assay type: in vivo
# Conditions: male NMRI mice, 10 mg/kg i.v., phenylquinone i.p. 10 minutes after compound, writhing counted 5-20 minutes after phenylquinone
# Description: The investigation into analgesic efficacy was performed by phenylquinone-induced writhing in mice (modified after: I. C. Hendershot, J. Forsaith, J. Pharmacol. Exp. There. 125, 237-240 (1959)). The corresponding literature description is hereby introduced as a reference and is deemed to be part of the disclosure.
# Male NMRI mice weighing from 25 to 30 g were used for this purpose. Groups of 10 animals per substance dose received, 10 minutes after intravenous administration of the compounds tested, 0.3 ml/mouse of a 0.02% aqueous solution of phenylquinone (phenylbenzoquinone, Sigma, Deisenhofen; solution prepared with addition of 5% of ethanol and stored in a water bath at 45° C.) administered intraperitoneally. The animals were placed individually in observation cages. A push button counter was used to record the number of pain-induced stretching movements (writhing reactions=straightening of the torso with stretching of the rear extremities) for 5-20 minutes after phenylquinone administration. The control was provided by animals which received only physiological common salt solution.
# The compounds were tested at the standard dosage of 10 mg/kg. Inhibition of the writhing reactions by a substance was calculated according to the following formula: [formula]
# The in-depth investigation into analgesic efficacy was performed using phenylquinbne-induced writhing in mice, as described above.
row,Structure (SMILES),% inhibition of writhing reactions
1,"COc1cccc(C2(O)CCC(NC(=O)Cc3c(O)c4ccc(Cl)cc4[nH]c3=O)CC2CN(C)C)c1 (centres unmarked) [Example 1, 2′-(7-Chloro-4-hydroxy-2-oxo-1,2-dihydroquinolin-3-yl)-N-[3″-(N,N-dimethylaminomethyl)-4″-hydroxy-4″-(m-methoxyphenyl)cyclohexyl]acetamide]",60%
2,"COc1cccc(C2(O)CCC(NC(=O)Cc3c(OC)c4ccc(Cl)cc4[nH]c3=O)CC2CN(C)C)c1 (centres unmarked) [Example 2, 2′-(7-Chloro-4-methoxy-2-oxo-1,2-dihydroquinolin-3-yl)-N-[3″-(N,N-dimethylaminomethyl)-4″-hydroxy-4″-(m-methoxyphenyl)cyclohexyl]acetamide]",63%
